The test system of this test is BDF1 mice, B16 melanoma ip, median survival T/C. Nature of the test: NCI In Vivo Anticancer Drug Screen. Data for tumor model B16 Melanoma (intraperitoneal) in B6D2F1 (BDF1) mice. As to conditions: endpoint: median survival time, higher = longer survival. The protocol: The antitumor activity of compounds was measured in mice bearing transplantable tumors. Survival or tumor size were measured and the results are expressed as the measurement made in the treated group (T) divided by the measurement made in the vehicle treated control group (C). The tumor model used in this assay is B16 Melanoma (intraperitoneal) in B6D2F1 (BDF1) mice

Where [1] appears, read: dose: 25.0 mg/kg/injection, schedule: Q01DX009 (ip), vehicle: saline with Tween-80.
Where [2] appears, read: dose: 50.0 mg/kg/injection, schedule: Q01DX009 (ip), vehicle: saline with Tween-80.
Setting [3] is: dose: 100.0 mg/kg/injection, schedule: Q01DX009 (ip), vehicle: saline with Tween-80.
The mark [4] stands for this setting: dose: 25.0 mg/kg/injection, schedule: Q04DX003 (ip), vehicle: Klucel (hydroxypropylcellulose) (HPC).
The mark [5] stands for this setting: dose: 50.0 mg/kg/injection, schedule: Q04DX003 (ip), vehicle: Klucel (hydroxypropylcellulose) (HPC).
[6] abbreviates: dose: 100.0 mg/kg/injection, schedule: Q04DX003 (ip), vehicle: Klucel (hydroxypropylcellulose) (HPC).
Where [7] appears, read: dose: 400.0 mg/kg/injection, schedule: Q04DX003 (ip), vehicle: Klucel (hydroxypropylcellulose) (HPC).
The mark [8] stands for this setting: dose: 100.0 mg/kg/injection, schedule: Q01DX009 (ip), vehicle: Klucel (hydroxypropylcellulose) (HPC).
The mark [9] stands for this setting: dose: 200.0 mg/kg/injection, schedule: Q01DX009 (ip), vehicle: Klucel (hydroxypropylcellulose) (HPC).
Setting [10] is: dose: 400.0 mg/kg/injection, schedule: Q01DX009 (ip), vehicle: Klucel (hydroxypropylcellulose) (HPC).

Structures are written as SMILES. Where “and” joins values, the source holds several entries; their conditions need not be identical. Equal entries are not always repeated. Toxic doses and inconclusive results are not listed.

As to `CCCCCCCCCCCC[N+](C)(C)C` (tested in a mixture with another compound), the T/C runs as follows: (dose: 3.5 mg/kg/injection, schedule: Q01DX009 (ip), vehicle: saline) 98 % of control; (dose: 7.0 mg/kg/injection, schedule: Q01DX009 (ip), vehicle: saline) 86 % of control; (dose: 14.0 mg/kg/injection, schedule: Q01DX009 (ip), vehicle: saline) 90 % of control.
As to `COc1ccc2nc3cc(Cl)ccc3c(NC(C)CCCN(CCCl)CCCl)c2c1` (stereo not drawn), the T/C by setting is: (dose: 0.12 mg/kg/injection, schedule: Q01DX009 (ip), vehicle: saline) 114 % of control; (dose: 0.25 mg/kg/injection, schedule: Q01DX009 (ip), vehicle: saline) 105 % of control; (dose: 0.5 mg/kg/injection, schedule: Q01DX009 (ip), vehicle: saline) 105 % of control; (dose: 0.62 mg/kg/injection, schedule: Q04DX003 (ip), vehicle: saline with Tween-80) 110 % of control; (dose: 1.25 mg/kg/injection, schedule: Q04DX003 (ip), vehicle: saline with Tween-80) 110 % of control.
As to `CCCCCCC(=O)/C=C/c1cccc(OCOCC)c1`, the T/C is 99 % of control (dose: 12.5 mg/kg/injection, schedule: Q01DX009 (ip), vehicle: saline with Tween-80); 94 % of control under setting [1]; 102 % of control under setting [2]; 98 % of control under setting [3].
`O=[N+]([O-])c1cccc(C(O)C=C(C(F)(F)F)C(F)(F)F)c1` (stereo not drawn): the T/C by setting is: under setting [1], 93 % of control; under setting [3], 86 % of control.
With `Clc1ccc2c(c1)C(Nc1cc3c4ccccc4ccc3c3ccccc13)c1cc(Cl)cc(Cl)c1-2` (stereo not drawn), the T/C (dose: 6.25 mg/kg/injection, schedule: Q01DX009 (ip), vehicle: saline with Tween-80) was 86 % of control.
Regarding `CC1(CO)C(O)CCC2(C)C1CCC1CC3CC12CCC3(O)CO` (stereo not drawn), the T/C (dose: 0.78 mg/kg/injection, schedule: Q03HX020 (oral), vehicle: Klucel (hydroxypropylcellulose) (HPC)) was 97 % of control; the T/C (dose: 1.56 mg/kg/injection, schedule: Q03HX020 (oral), vehicle: Klucel (hydroxypropylcellulose) (HPC)) is 107 % of control; the T/C (dose: 3.12 mg/kg/injection, schedule: Q03HX020 (ip), vehicle: Klucel (hydroxypropylcellulose) (HPC)) is 89 % of control; the T/C (dose: 3.12 mg/kg/injection, schedule: Q03HX020 (oral), vehicle: Klucel (hydroxypropylcellulose) (HPC)) is 99 % of control; the T/C (dose: 6.25 mg/kg/injection, schedule: Q03HX020 (ip), vehicle: Klucel (hydroxypropylcellulose) (HPC)) is 108 % of control; the T/C (dose: 6.25 mg/kg/injection, schedule: Q03HX020 (oral), vehicle: Klucel (hydroxypropylcellulose) (HPC)) is 102 % of control. For the same molecule, the T/C (dose: 12.5 mg/kg/injection, schedule: Q03HX020 (ip), vehicle: Klucel (hydroxypropylcellulose) (HPC)) was 118 % of control; the T/C (dose: 12.5 mg/kg/injection, schedule: Q03HX020 (oral), vehicle: Klucel (hydroxypropylcellulose) (HPC)) is 99 % of control; the T/C (dose: 25.0 mg/kg/injection, schedule: Q03HX020 (ip), vehicle: Klucel (hydroxypropylcellulose) (HPC)) was 115 % of control; the T/C (dose: 25.0 mg/kg/injection, schedule: Q03HX020 (oral), vehicle: Klucel (hydroxypropylcellulose) (HPC)) was 98 % of control; the T/C under setting [4] was 100 % of control; the T/C (dose: 50.0 mg/kg/injection, schedule: Q03HX020 (ip), vehicle: Klucel (hydroxypropylcellulose) (HPC)) was 176 % of control. Further, the T/C runs as follows: (dose: 50.0 mg/kg/injection, schedule: Q03HX020 (oral), vehicle: Klucel (hydroxypropylcellulose) (HPC)) 104 % of control; under setting [5], 105 % of control; (dose: 100.0 mg/kg/injection, schedule: Q03HX020 (oral), vehicle: Klucel (hydroxypropylcellulose) (HPC)) 117 % of control; under setting [6], 117 % of control; under setting [7], 163 % of control.
Take `CC(C)C(NC(=O)c1ccccc1)C(=O)O` (stereo not drawn): the T/C reads like this: under setting [4], 111 % of control; under setting [2], 95 % of control; under setting [5], 100 % of control; under setting [8], 103 % of control; under setting [3], 93 % of control; under setting [6], 86 % of control. In addition, the T/C under setting [9] is 96 % of control.
On to `Nc1ccc(C(=O)O)c(O)c1`, for which the T/C by setting is: (dose: 9.3 mg/kg/injection, schedule: Q01DX009 (ip), vehicle: saline with Tween-80) 98 % of control; (dose: 18.7 mg/kg/injection, schedule: Q01DX009 (ip), vehicle: saline with Tween-80) 99 % of control; (dose: 37.5 mg/kg/injection, schedule: Q01DX009 (ip), vehicle: saline with Tween-80) 98 % of control; (dose: 75.0 mg/kg/injection, schedule: Q01DX009 (ip), vehicle: saline with Tween-80) 89 % of control.
In the case of `CCOc1ccc(NC(=O)Nc2cccc3ccccc23)cc1`, the T/C reads like this: (dose: 1.56 mg/kg/injection, schedule: Q01DX009 (ip), vehicle: Klucel (hydroxypropylcellulose) (HPC)) 91 % of control; (dose: 3.13 mg/kg/injection, schedule: Q01DX009 (ip), vehicle: Klucel (hydroxypropylcellulose) (HPC)) 91 % of control; (dose: 6.25 mg/kg/injection, schedule: Q01DX009 (ip), vehicle: Klucel (hydroxypropylcellulose) (HPC)) 86 % of control and 91 % of control.
Regarding `ClN=C(c1ccccc1)c1ccccc1`, the T/C reads like this: (dose: 25.0 mg/kg/injection, schedule: Q01DX009 (ip), vehicle: Klucel (hydroxypropylcellulose) (HPC)) 105 % of control; (dose: 50.0 mg/kg/injection, schedule: Q01DX009 (ip), vehicle: Klucel (hydroxypropylcellulose) (HPC)) 105 % of control.
`[Cu+2].[NH-]C1(C(=O)O)CCCC1.[NH-]C1(C(=O)O)CCCC1`: the T/C is, setting by setting: (dose: 2.5 mg/kg/injection, schedule: Q01DX009 (ip), vehicle: saline with Tween-80) 93 % of control; (dose: 5.0 mg/kg/injection, schedule: Q01DX009 (ip), vehicle: saline with Tween-80) 93 % of control; (dose: 10.0 mg/kg/injection, schedule: Q01DX009 (ip), vehicle: saline with Tween-80) 93 % of control.
Consider `CC(=O)CC(=O)N1CCCC(C)C1` (stereo not drawn), for which the T/C was 116 % of control under setting [8], 109 % of control under setting [9] and 110 % of control under setting [10].
The corresponding values for `CCCCCCCCC(O)CCCCC` (stereo not drawn) are 100 % of control, 94 % of control and 98 % of control.
For the molecule `NC(=S)N/N=C/c1ccc(OC(=O)COc2ccc(Cl)cc2)cn1`, the T/C was 111 % of control under setting [1], 116 % of control under setting [2] and 117 % of control under setting [3].
Regarding `Cc1ccc(-c2cc(-c3ccccc3)no2)cc1`, the T/C was 94 % of control under setting [6]; 100 % of control (dose: 200.0 mg/kg/injection, schedule: Q04DX003 (ip), vehicle: Klucel (hydroxypropylcellulose) (HPC)); 94 % of control under setting [7].

For the origin of these results see PubChem BioAssay AID192 (DTP/NCI, 2004).
